1 compound from patent US11999737B2, “Kinase inhibitors and related methods of use” (Duke University, priority 2014, dated 2024) can be followed below.

One assay deals with intact mouse aorta. The experiment in a line: Phenylephrine-induced contractile force of intact mouse aorta (myograph). The procedure:
A, Typical myograph force trace showing the effect of HS38 on intact mouse aorta contractility. The maximum contractile force of PE-induced contraction was reduced by approximately 30% when HS38 (10 μM) was added five minutes prior to PE addition and by approximately 40% when added ten minutes after PE addition. B, Serum-starved aortic SM cells were treated with SIP (0.25 μM) and HS-38 (±50 μM) for 30 min.
Tissue Preparation and Force Measurements. All protocols and procedures for tissue harvest were carried out according to protocols approved by the Animal Care and Use Committees at the University of Virginia and Duke University, Helical strips of mouse aorta or strips of rabbit ileum were dissected, (˜400 μm wide, 2 mm long) and mounted between two tungsten hooks on a bubble plate for force measurements (Horiuti (1988) J. Physiol.-London 398, 131-148). […] Intact strips of mouse abdominal aorta were challenged with phenylephrine following pretreatment with HS38 or diluent, DMSO or HS38 and DMSO were added after maximal phenylephrine-induced force was achieved and force output measured. […] For Ca^2+ activating solutions, EGTA (10 mM) and a calculated amount of Ca-methanesulfonate was added to give the desired free Ca^2+ concentration ((Horiuti (1988) J. Physiol.-London 398, 131-148).

Assay [1] deals with posterior cerebral arteries of spontaneous hypertensive rat (SHR). Kind of assay: Pressure myography of posterior cerebral arteries of SHR, enhanced myogenic tone. Particulars: HS-38 10 μM, 10-wk SHR. From the text:
Data are means (n=2 animals) for size-matched vessels from 10-wk SHR rats. The average maximum passive diameters at 120 mmHg were 280 μm. Representative pressure-induced changes in arteriolar diameter (A) as well as mean diameter-pressure relationships (B) and active myogenic constriction (C) are shown.
Posterior cerebral arteries (PCAs) from male Sprague-Dawley rats were isolated and mounted/cannulated for pressure myography. Briefly, 2-3 mm arterial segments are mounted across glass canuli in an arteriograph chamber attached to a pressure myograph (Living Systems, Burlington, Vt. USA) and tied in place using silk suture. Endothelial cells are removed by passing a stream of air bubbles through the vessel lumen (this methodology was confirmed by loss of dilatory response to acetylcholine). […] After this, arteriole myogenic responses (i.e., vessel diameter) to increasing luminal pressure were monitored ex vivo in the absence or presence of HS-38. […] This series of steps is repeated in normal Krebs buffer, with the addition of ZIPK inhibitor (i.e., 10 μM HS-38) and finally in Ca^2+ free Krebs (same constitution as normal Krebs with no CaCl2 and added EGTA (2 mM), Data are collected as average vessel diameter over stable region of each step and expressed as a percentage of the maximal passive vessel diameter (120 mmHg, 0Ca^2+) to standardize for variation in size of […]. […]

Each structure is given as a SMILES string.

Take `CC(Sc1nc2c(cnn2-c2cccc(Cl)c2)c(=O)[nH]1)C(N)=O` (stereo not drawn) [HS38]: the “reduction of maximum contractile force of PE-induced contraction” value in the assay on intact mouse aorta (HS38 10 μM added five minutes prior to PE addition) is on record as “approximately 30%”; with intact mouse aorta (HS38 10 μM added ten minutes after PE addition), “approximately 40%”. In assay [1], the “enhanced myogenic tone at low basal luminal pressures” value is “can be attenuated”.
